US20040143025A1, “Carbon monoxide generating compunds for treatment of vascular, inflammatory and immune disorders” (priority 2002, published 2004)
Where two headings read alike, the source gives them in different places.

What was measured:
[1] = tested on: rat liver; parameters: species or system Sprague Dawley (SD) rats
Description: Animals. Male Sprague Dawley (SD) rats weighing between 300-350 g (Harlan Sprague Dawley, Indianapolis, Ind.) were used. Animals were fed standard rodent chow and water and libitum and cared according to guidelines approved by the American Association of Laboratory Animal Care.
Isolated perfusion liver apparatus. An isolated perfusion liver apparatus was used, as described in Amersi et al., supra, and Maulik et al., Circulation 94:398-406 (1996). In brief, syngeneic rat blood, obtained for each experiment from four donor animals, was diluted to a hematocrit of 15% with Krebs Ringer Bicarbonate Buffer (mM: NaCl 118, KH2POF 1, MgSO4 0.9, CaCl2 2.5, dextrose 11.1, and NaHCO2 25), and maintained at pH of 7.4. The perfusate was pumped from a heated reservoir that warmed the perfusate to 37° C. through silastic tubing oxygenator connected to a flow meter that measured portal vein blood flow (Cole Palmer Instruments, Chicago, Ill.). Portal pressure was kept constant via a pressure monometer connected to a T fitting in the portal vein canula. […] During the experiment, pH, temperature and oxygenation were kept constant.
Ex vivo cold ischemia model. SD rats underwent isoflourane anesthesia and systemic heparinization. […] The livers were then stored for 24 h at 4° C. in UW solution, followed by ex-vivo reperfusion for 1-2 h on an isolated perfusion liver apparatus. Portal vein blood flow, pressure, and bile production were recorded every 30 min. Blood samples were collected at 30 min intervals and serum glutamic oxaloacetic transaminase (sGOT) levels were measured using an autoanalyzer from ANTECH Diagnostics (Irvine, Calif.). At the conclusion of experiment, a portion of the liver was snap frozen for mRNA extraction/Western blot analyses; the remaining samples were fixed in formalin for H&E staining.
The role of CO—HO-1 pathway in hepatic I/R injury was studied in five major treatment groups (n=4.8 rats/group). In Group 1, the extent of I/R injury was contrasted between livers perfused ex-vivo with blood saturated with CO (300 parts per million [ppm]; 0.03% balanced air) vs. air alone (21% O2). As NO may enhance HO-1 expression (Brouard et al., supra), we then investigated a link between the two gaseous molecules in Group 2 livers, which were perfused with CO supplemented with 25 mM NG-nitro-L-arginine methyl ester hydrochloride (L-NAME; Sigma Chemicals, St. Louis, Mo.), an inducible NO inhibitor. […] To analyze as to whether exogenous CO can substitute for HO-1 in preventing I/R insult, Group 4 rats were treated 24 h prior to liver procurement with ZnPP)(1.5 mg/kg/i.p; Porphyrin Products, Logan Utah), an HO-1 inhibitor, followed by ex vivo perfusion with CO. […] Brouard et al., supra. Therefore, Group 5 rats were pre-treated 60 min before harvest with p38 MAPK inhibitor, SB203580, a pyridinyl imidazol (25 mg/kg orally; Sigma). In addition, prior to reperfursion with CO, SB203580 (20 μM) was added to the perfusate.

[2] = tested on: anti-MHC class I alloantibodies; assay: Detection of alloantibodies (cytofluorimetry); type: in vivo, rat; settings: vs recipients of control adenovirus-treated aortas
Description: Detection of alloantibodies. Donor LEW.1W splenocyts were incubated with heat-inactivated serum from ELW.1A recipients, serially diluted in PBS. Cells were then washed and simultaneously incubated with FITC-coupled donkey anti-rat IgG (Jackson Laboratories) and with a biotin-labeled anti-B cell Mab (clone OX33, ECACC). After washing, cells were incubated with phycoerythrin-coupled streptavidin. Serum levels of alloantibodies were determined by cytofluorimetry (FACScalibur, Becton Dickinson, San Jose, Calif.) and reported as the mean channel fluorescence (MCF) at each dilution of serum. A predominance of anti-donor MHC class II alloantibodies, as previously described in certain tolerance models (Cuturi et al., Eur. J. Immunol. 24:1627-31 (1994)), is detected by the binding of alloantibodies only to OX33 positive cells (B cells). The presence of anti-MHC class I alloantibodies results in labeling of OX33 negative (T cells) and positive cells. MCF of alloantibody binding to OX33 negative cells indicated the level of anti-MHC I alloantibodies.

[3] = cited from earlier work
[4] = tested on: C57BL/6 ApoE (−/−) mice; assay: Carotid wire injury in atherogenic ApoE-/- mouse, neointimal formation; type: in vivo; settings: day -1 to day 28
Description: The effects of CO generated though metabolic degradation of methylene chloride are investigated in an atherosclerotic mouse carotid intimal denudation model. Female C57BL/6 ApoE (−/−) mice (10-12 weeks old, n=12/group) are fed Western diet for 1 week prior to injury and 4 weeks after injury. On day 0 mice are anesthesized with ip injection of ketamine (80 mg/kg) & xylazine (5 mg/kg). The left carotid artery is isolated and two ligatures (6-O silk) are placed around the external carotid artery, ligatures are also placed around the common and internal carotid arteries. After the distal external carotid ligatures are tied, the carotid is incised with Vannas scissors proximal to the ligature. A curved flexible wire (0.35 mm/0.014 in diameter) is introduced into the external carotid and passed three times along the wall of the common carotid while being rotated. Upon removal of the wire the proximal carotid ligature is tied and the skin is reopposed with 6-O silk.
Methylene chloride (25, 100, 400 mg/kg/day) is administered intraperitoneally or orally starting on day-1 until day 28. A control group is treated with vehicle. On day 28 animals are sacrificed and after incision, the right and left common, external, and internal carotids are ligated. After sternotomy, common carotids are dissected further to the aortic arch. A 27-gauge needle is placed in the left ventricle and a systemic perfusion with phosphate buffered paraformaldehyde (100 mM, 4% wt/vol, pH 7.3) is performed at 100 mmHg via the left ventricular cannula. Subsequently, the common, internal and external carotid arteries are transected and removed. Specimens are dehydrated in ethanol and xylene, and embedded in paraffin. Tissue sections are stained and VSMC proliferation is assessed microscopically by histomorphometry. Methylene chloride therapy at 400, 100, and 25 mg/kg/day inhibits neointimal formation by 90%, 75% and 30% respectively.

[5] = 24 h cold storage, 2 h reperfusion, CO 300 ppm vs air alone

## [C-]#[O+] [CO, carbon monoxide]
[1]; [5]
  bile production: significantly more bile
  portal vein resistance: significantly decreased
[1]; CO 300 ppm alone, 2 h reperfusion
  sGOT levels: 163±27 IU/L
[1]; CO 300 ppm, 1 h reperfusion
  sGOT levels: 79±14 IU/L

## ClCCl [methylene chloride]
[2]
  levels of anti-MHC class I alloantibodies: no statistical differences
[3]; 500 mg/kg MC per os
  HbCO generated: around 10%
  half life of metabolism: about 3 h
[3]; 500 mg/kg for 4 weeks, rats
  toxicity on repeated administration: did not induce major body weight, biochemical or histological changes
[3]; 500 mg/kg orally
  maximal COHb values in venous or aortic blood: 10 % COHb
[3]; rat, in vivo
  portion of the compound converted into carbon monoxide: 50-80%
[4]; 25 mg/kg/day
  inhibition of neointimal formation: 30%
[4]; 100 mg/kg/day
  inhibition of neointimal formation: 75%
[4]; 400 mg/kg/day
  inhibition of neointimal formation: 90%
